Reference: PubChem BioAssay (NCI)
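Method: 48-hour compound exposure of cells in 96-well plates, five concentrations, linear interpolation of endpoints. GI50 is the concentration that inhibits growth by half. TGI: total growth inhibition.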

Tests used:
Assay in all cases: growth of human tumour cells (NCI), 48 h
[1] = system: OVCAR-3 ovarian
[2] = system: SF-268 CNS
[3] = system: MDA-MB-231 breast
[4] = system: OVCAR-8 ovarian
[5] = system: MOLT-4 leukemia
[6] = system: DU-145 prostate
[7] = system: SK-MEL-5 melanoma
[8] = system: ACHN renal
[9] = system: UO-31 renal
[10] = system: NCI/ADR-RES ovarian

| SMILES | TGI [1] [µM] | TGI [2] [µM] | TGI [3] [µM] | TGI [4] [µM] | TGI [5] [µM] | TGI [6] [µM] | TGI [7] [µM] | TGI [8] [µM] | TGI [9] [µM] | TGI [10] [µM] | GI50 [1] [µM] | GI50 [2] [µM] | GI50 [3] [µM] | GI50 [4] [µM] | GI50 [5] [µM] | GI50 [6] [µM] | GI50 [7] [µM] | GI50 [8] [µM] | GI50 [10] [µM] | GI50 [9] [µM] |
| --- | --- | --- | --- | --- | --- | --- | --- | --- | --- | --- | --- | --- | --- | --- | --- | --- | --- | --- | --- | --- |
| Cc1ccc(-n2cc(-c3ccc(Cl)cc3)c3c(NNC(=S)NCc4ccccc4)ncnc32)cc1 | 37.4 | > 100 | 59.5 | 69.3 | > 100 | > 100 | 19.5 | > 100 | 24.2 | 32.8 | – | – | – | – | – | – | – | – | – | – |
| CC1=CC(=O)C[C@]2(C)[C@@H](O)CC(C(C)CO)C[C@@H]12 (stereo not given in full) | > 100 | > 100 | > 100 | > 100 | > 100 | > 100 | > 100 | > 100 | > 100 | > 100 | – | – | – | – | – | – | – | – | – | – |
| CC1(C)CC(=O)C2=C(C1)OC1=C(CC(C)(C)CC1=O)C2c1ccccc1Cl (stereo not given) | > 100 | > 100 | > 100 | > 100 | > 100 | > 100 | > 100 | > 100 | 3.67 | > 100 | – | – | – | – | – | – | – | – | – | – |
| O=C(C(Cl)=C(Nc1ccccc1)Nc1ccccc1)C(Cl)Cl | 79.3 | 76.7 | 91.2 | 42.8 | 45.1 | > 100 | 35.6 | > 100 | > 100 | > 100 | – | – | – | – | – | – | – | – | – | – |
| C=CC(C)(C)c1cc([C@@H]2COc3cc(O)ccc3C2=O)c(O)c(OC)c1OC | 23.3 | 51 | 37.9 | 54.3 | > 100 | 30.3 | 22.7 | 33.7 | 28.3 | 43 | – | – | – | – | – | – | – | – | – | – |
| N#Cc1c(C#N)c(-c2ccco2)n(/N=C/c2ccco2)c1N | > 100 | > 100 | 36.3 | 66.2 | > 100 | > 100 | > 100 | > 100 | > 100 | > 100 | – | – | – | – | – | – | – | – | – | – |
| CN(C)CCCNc1ccc2nnn3c4ccc([N+](=O)[O-])cc4c(=O)c1c23 | 11 | 12 | 2.95 | 5.38 | 5.63 | 12.1 | 5.97 | 5.92 | 9.5 | 3.09 | – | – | – | – | – | – | – | – | – | – |
| O=C(CSCC(=O)N/N=C\c1cc(Br)cc(Br)c1O)N/N=C\c1cc(Br)cc(Br)c1O | 93.8 | 58.2 | – | 68 | 74.7 | > 100 | 92.2 | 31.4 | 49.6 | > 100 | – | – | – | – | – | – | – | – | – | – |
| O=S(=O)(CC#CCS(=O)(=O)c1ccccc1)c1ccccc1 | 2.91 | 12.5 | 26.5 | 5.16 | > 42.2 | 17.4 | 10.4 | 3.25 | 2.65 | > 83 | – | – | – | – | – | – | – | – | – | – |
| COc1ccc2c(c1)CCC1C2CCC2(C)C1CC[C@@]2(O)CNC(=O)/C=C/c1ccc(O)c(O)c1 (stereo not given in full) | 67.3 | > 100 | 10 | > 100 | 2.28 | > 100 | 9.6 | 7.16 | – | 5.83 | 2.56 | 2.97 | 2.43 | 4.13 | 0.382 | 3.11 | 3.41 | 2.19 | 2.12 | – |
| CCO/C=N/C1=C(C#N)C(c2ccc(OC)c(OC)c2)c2c(-c3ccccc3)nn(-c3ccccc3)c2O1 (stereo not given) | 77.1 | 61.7 | 40.4 | 47.6 | 38.4 | 28.7 | 24.4 | 28.3 | 38.5 | 48.3 | – | – | – | – | – | – | – | – | – | – |
| Clc1ccc(CCN2CCN(CCCc3ccccc3)CC2)cc1Cl | 30.9 | 35.3 | 30.8 | 30.4 | > 100 | 30.4 | 29.9 | 39.4 | 24.7 | 28.5 | – | – | – | – | – | – | – | – | – | – |
| Clc1ccc(CCn2ccc3ccccc32)c(Cl)c1 | > 100 | > 100 | > 100 | > 100 | > 100 | > 100 | > 100 | > 100 | > 100 | > 100 | – | – | – | – | – | – | – | – | – | – |
| CN(C)CCCn1c2c(c3ccncc3c1=O)C(=O)c1ccccc1-2 | 9.6 | 10.7 | 7.7 | 15.3 | – | 10.6 | 2.5 | 10.4 | 21 | 11.6 | 1.99 | 1.47 | 1.77 | 0.616 | 0.324 | 0.988 | 1.07 | 0.339 | 0.803 | 0.546 |
| CCOC(=O)C1(C/C=C\CBr)CCCCCCC1=O (stereo not given) | – | > 100 | > 100 | > 100 | > 100 | > 100 | > 100 | > 100 | > 100 | > 100 | – | – | – | – | – | – | – | – | – | – |
| OB1OCc2ccccc21 | > 100 | > 100 | > 100 | > 100 | > 100 | > 100 | > 100 | – | > 100 | 57.9 | – | – | – | – | – | – | – | – | – | – |

| SMILES | TGI [1] [µM] | TGI [2] [µM] | TGI [3] [µM] | TGI [4] [µM] | TGI [5] [µM] | TGI [6] [µM] | TGI [7] [µM] | TGI [8] [µM] | TGI [9] [µM] | TGI [10] [µM] | GI50 [1] [µM] | GI50 [2] [µM] | GI50 [3] [µM] | GI50 [4] [µM] | GI50 [5] [µM] | GI50 [6] [µM] | GI50 [7] [µM] | GI50 [8] [µM] | GI50 [10] [µM] | GI50 [9] [µM] |
| --- | --- | --- | --- | --- | --- | --- | --- | --- | --- | --- | --- | --- | --- | --- | --- | --- | --- | --- | --- | --- |
| Fc1ccccc1N=c1oc2ccc(Br)cc2cc1-c1nc2ccccc2[nH]1 | – | 21 | 25.8 | > 36.5 | > 100 | > 42.5 | 35.7 | 29.8 | 20.5 | 65.7 | – | – | – | – | – | – | – | – | – | – |
| C[C@H]1C(=O)C2=C[C@H]1CCC(=O)[C@]1(C)CCCC(C)(C)[C@H]1C[C@H]2O | 84.9 | 64 | 20.2 | 35 | > 100 | 96.8 | – | 31.6 | 75.1 | 74.2 | – | – | – | – | – | – | – | – | – | – |
| CC(C)(C)OC(=O)N(CCCN)CCCCN(CCCN)C(=O)OC(C)(C)C | > 100 | > 100 | – | > 100 | > 100 | > 100 | > 100 | > 100 | > 100 | > 100 | – | – | – | – | – | – | – | – | – | – |
| CN1CCN(c2nc3c(c(=O)n(C)c(=O)n3C)n2C)CC1 | > 100 | > 100 | > 100 | > 100 | – | > 100 | > 100 | > 100 | > 100 | > 100 | – | – | – | – | – | – | – | – | – | – |
| COCN1C(=O)[C@@H]2C[C@@H](OC/C=C/CBr)CN2C(=O)c2ccccc21 | – | 83.4 | 55.1 | 34 | > 100 | 43.9 | 34.8 | 54.8 | 40.5 | > 100 | – | – | – | – | – | – | – | – | – | – |
| O=C1CSC(c2ccc(Cl)cc2)N1c1ccc(-n2c(-c3ccccc3)nc3ccccc3c2=O)cc1 (stereo not given) | > 100 | > 100 | > 100 | > 100 | > 100 | – | > 100 | > 100 | > 100 | > 100 | – | – | – | – | – | – | – | – | – | – |
| CC1=C2CC3=C(C)C(=O)O[C@H]3C[C@@H](C)[C@@H]2CC1 | > 100 | > 100 | > 100 | > 100 | > 100 | – | > 100 | > 100 | > 100 | > 100 | – | – | – | – | – | – | – | – | – | – |
| COc1cc(C2c3cc4c(c(O)c3C(=O)C3CCC(=O)N32)OCO4)cc(OC)c1OC (stereo not given) | > 100 | > 100 | – | > 100 | > 100 | > 100 | > 100 | > 100 | > 100 | > 100 | – | – | – | – | – | – | – | – | – | – |
| O=C(c1ccccc1)c1cc(-c2ccccc2)c(-c2ccccc2)[nH]c(=O)c1=O | > 100 | > 100 | > 100 | > 100 | 57.2 | – | > 100 | > 100 | > 100 | > 100 | – | – | – | – | – | – | – | – | – | – |
| COc1ccc2[nH]c3c(C)c4ccnc(NCCCN(C)CCCNC(=O)NCCCN(C)CCCNc5nccc6c(C)c7[nH]c8ccc(OC)cc8c7c(C)c56)c4c(C)c3c2c1 | 8.29 | 3.25 | > 50 | – | > 12.4 | > 10.9 | – | 2.8 | > 16.9 | > 50 | – | – | – | – | – | – | – | – | – | – |
| CC(C)(C)OC(=O)NCCNC(=O)OCc1ccccc1 | > 100 | > 100 | – | > 100 | > 100 | > 100 | > 100 | > 100 | > 100 | > 100 | – | – | – | – | – | – | – | – | – | – |
| COC(=O)c1ccc2[nH]c3c(c2c1)CC(=O)Nc1ccccc1-3 | > 100 | > 100 | > 100 | > 100 | – | > 100 | > 100 | > 100 | 0.211 | > 100 | – | – | – | – | – | – | – | – | – | – |
| Cc1[nH]c(=O)nc2c1C(=O)N(C(C)C)C(NC(C)C)S2 (stereo not given) | > 100 | – | > 100 | > 100 | > 100 | > 100 | > 100 | > 100 | > 100 | > 100 | – | – | – | – | – | – | – | – | – | – |
| COC(=O)c1cc(CNCCc2c[nH]c3ccccc23)on1 | > 100 | > 100 | – | > 100 | > 100 | > 100 | > 100 | > 100 | > 100 | > 100 | – | – | – | – | – | – | – | – | – | – |
| CCC(c1ccc(N(C)C)cc1)C1NC(=S)NC1=O (stereo not given) | – | > 100 | > 100 | > 100 | > 100 | > 100 | > 100 | > 100 | > 100 | > 100 | – | – | – | – | – | – | – | – | – | – |
| Cc1ccc(-c2c(C#N)c(O)n(NS(=O)(=O)c3ccccc3)c(=O)c2C#N)cc1 | – | > 100 | > 100 | > 100 | > 100 | – | > 100 | > 100 | – | > 100 | – | – | – | – | – | – | – | – | – | – |
